Test results published in ChEMBL document CHEMBL5042532, “Discovery of N-(4-(Benzyloxy)-phenyl)-sulfonamide Derivatives as Novel Antagonists of the Human Androgen Receptor Targeting the Activation Function 2” (J Med Chem, 2022).
pIC50: −log10 of the molar value.

Tests used:
Androgen receptor = target: T1, Androgen receptor (Homo sapiens, UniProt P10275); assay: Antagonist activity against human androgen receptor expressed in human LNCap cells trasfected with ARR2PB-eGFP cells incubated for 3 days by fluorescence based AR transcription assay; type: cell-based
T1 sequence (P10275 whole entry): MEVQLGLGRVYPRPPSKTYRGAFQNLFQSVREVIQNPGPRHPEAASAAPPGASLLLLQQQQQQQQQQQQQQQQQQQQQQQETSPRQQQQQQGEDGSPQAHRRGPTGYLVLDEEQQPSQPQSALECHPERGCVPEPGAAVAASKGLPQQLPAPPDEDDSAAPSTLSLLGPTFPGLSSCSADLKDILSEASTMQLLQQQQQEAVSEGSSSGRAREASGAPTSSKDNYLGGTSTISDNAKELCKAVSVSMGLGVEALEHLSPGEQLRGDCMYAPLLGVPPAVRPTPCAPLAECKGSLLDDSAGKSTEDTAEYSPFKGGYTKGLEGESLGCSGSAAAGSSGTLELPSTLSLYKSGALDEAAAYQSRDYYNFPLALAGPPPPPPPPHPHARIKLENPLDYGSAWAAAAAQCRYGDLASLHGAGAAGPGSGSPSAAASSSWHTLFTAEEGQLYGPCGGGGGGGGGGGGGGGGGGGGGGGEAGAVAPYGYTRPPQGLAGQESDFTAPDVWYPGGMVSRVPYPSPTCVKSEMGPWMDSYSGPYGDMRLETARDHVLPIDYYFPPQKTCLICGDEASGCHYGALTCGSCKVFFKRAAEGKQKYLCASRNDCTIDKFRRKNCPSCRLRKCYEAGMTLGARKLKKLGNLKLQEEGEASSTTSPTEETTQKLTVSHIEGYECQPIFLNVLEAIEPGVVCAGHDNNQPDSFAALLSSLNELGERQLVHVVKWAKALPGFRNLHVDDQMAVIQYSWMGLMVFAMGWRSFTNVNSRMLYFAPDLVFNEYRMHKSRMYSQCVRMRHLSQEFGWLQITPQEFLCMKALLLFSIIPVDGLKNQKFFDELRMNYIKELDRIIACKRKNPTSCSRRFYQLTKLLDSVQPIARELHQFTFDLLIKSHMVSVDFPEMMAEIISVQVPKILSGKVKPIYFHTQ

NIH3T3 = assay: Cytotoxicity against mouse NIH3T3 cells assessed as reduction in cell viability at 100 uM incubated for 4 hrs by MTT assay; type: toxicity, cell-based; conditions: nih3t3, 4 h
[1] = Toxicity in CB17 SCID mouse xenografted with human LNCaP cells assessed as decrease in body weight at 2.5 mg/kg,IT(Intratumoral) administered once in every week for 25 days […]; type: organism-based; conditions: in vivo, other, 600 h, time 25 day
[2] = Cmax in CB17-SCID mouse mouse at 50 mg/kg, iv; type: ADME, organism-based; set-up: route intravenous, dose 50 mg/kg; conditions: in vivo
[3] = Half life in CB17-SCID mouse mouse at 50 mg/kg, iv; type: ADME, organism-based; conditions: in vivo
[4] = Volume of distribution in CB17-SCID mouse mouse at 50 mg/kg, iv; type: ADME, organism-based; conditions: in vivo
[5] = Clearance in CB17-SCID mouse mouse at 50 mg/kg, iv; type: ADME, organism-based; conditions: in vivo
[6] = Inhibition of prostate specific antigen expression in human LNCaP cells expressing ARR2PB-eGFP by immunoassay

| SMILES | pIC50 (Androgen receptor) | other results |
| --- | --- | --- |
| O=S(=O)(Cc1ccc(Cl)cc1)Nc1ccc(OCc2ccccc2)cc1 | < 4.30 | – |
| CN(C)S(=O)(=O)Nc1ccc(OCc2ccccc2)cc1 | – | Activity (NIH3T3): Non-Toxic; Activity [1]: Toxic; Cmax [2]: 890 ng/mL; half-life [3]: 1.52 h; Vd [4]: 2.99 L/kg; clearance [5]: 366 mL/min/kg |
| CC(=O)N1c2cc(S(=O)(=O)Nc3ccc(OCc4ccccc4)cc3)c(Br)cc2CC1C (stereo not drawn) | < 4.30 | – |
| O=[N+]([O-])c1ccc(CS(=O)(=O)Nc2ccc(OCc3ccccc3)cc2)cc1 | < 4.30 | – |
| O=S(=O)(Cc1ccccc1)Nc1ccc(OCc2ccccc2)cc1 | – | Activity (NIH3T3): Non-Toxic |
| CC(=O)c1ccc(S(=O)(=O)Nc2ccc(OCc3ccccc3)cc2)cc1 | < 4.30 | – |
| Cc1cc(C)c(S(=O)(=O)Nc2ccc(OCc3ccccc3)cc2)c(C)c1 | < 4.30 | – |
| CC1NC(=O)NC(=O)C1S(=O)(=O)Nc1ccc(OCc2ccccc2)cc1 (stereo not drawn) | < 4.30 | – |
| O=S(=O)(Nc1ccc(OCc2ccccc2)cc1)c1ccccc1 | – | Activity (NIH3T3): Toxic |
| Cc1ccc(S(=O)(=O)Nc2ccc(OCc3ccccc3)cc2)cc1 | 4.94 | – |
| COc1ccc(CS(=O)(=O)Nc2ccc(OCc3ccccc3)cc2)cc1 | < 4.30 | – |
| CCOC(=O)c1cn[nH]c1S(=O)(=O)Nc1ccc(OCc2ccccc2)cc1 | < 4.30 | – |
| CC(=O)Nc1ccc(S(=O)(=O)Nc2ccc(OCc3ccccc3)cc2)cc1 | < 4.30 | – |
| CNC(=O)c1ccc(N2C(=S)N(c3ccc(C#N)c(C(F)(F)F)c3)C(=O)C2(C)C)cc1F [ENZALUTAMIDE] | – | Activity [1]: Toxic; pIC50 [6]: 7.00 |
| CC(C)CS(=O)(=O)Nc1ccc(OCc2ccccc2)cc1 | < 4.30 | – |
| COC(=O)c1sccc1S(=O)(=O)Nc1ccc(OCc2ccccc2)cc1 | < 4.30 | – |
| Cn1c(=O)n(C)c2cc(S(=O)(=O)Nc3ccc(OCc4ccccc4)cc3)ccc21 | < 4.30 | – |
